Values quoted from earlier work as cited in patent USRE37727E1, “Method for treating nerve injury pain associated with shingles” (priority 1989, dated 2002).

Conditions: venous; reported range

In the case of `CCN(CC)CC(=O)Nc1c(C)cccc1C` [lidocaine], the “minimum concentrations of lidocaine for anti-arrhythmic effects” value is listed as 0.6 to 2.0 µg/mL.
